Reference: patent US8865901B2, “Gain-of-function Bcl-2 inhibitors” (priority 2009, dated 2014)
Like-named read-outs stand apart in the source and are kept apart here.

Legend:
[1] = tested on: TAMH cells overexpressing Bcl-xL (TAMH-Bcl-xL, Tabx2s); assay: Cytotoxicity / apoptosis induction in TAMH cells overexpressing Bcl-xL; type: cell-based; conditions: for Neo:Bcl: ratio Neo to Bcl-xL cells
Experimental: (§1) To examine the sensitivity of cells over-expressing Bcl-xL to various mitochondrial inhibitors and apoptosis inducers, cell lines over-expressing Bcl-xL were prepared and tested according to Hockenberry et al. U.S. Pat. No. 7,241,804, hereby incorporated by reference in its entirety. Competitive binding of compounds with fluorescent antimycin A3, and competitive binding of compounds with BH3 peptide and Bcl-2. Competitive binding of compounds with BH-3 peptide were also measured using Bcl-xL as previously described. Id.
(§2) Cell lines were grown in RPMI 1640 medium (Gibco, Grand Island, N.Y.) supplemented with 5% fetal bovine serum (Hyclone, Logan, Utah). Also shown is the ratio of TAMH cells expressing Bcl-xL to those expressing A142L (WT:142L). The assay measures the potency of various compounds with respect to inducing apoptosis in these cells.
(§3) The compounds described in Example 2 were tested for their ability to inhibit Bcl-2 gain-of-function in TAMH cells, TAMH cells overexpressing […] (TAMH-Bcl-xL), TAMH cells transfected with Neo vector (Neo), TAMH cells over expressing a variant of Bcl-xL (A142L) using the methods of Example 1. 3-6.
(§4) The effects of the compounds described in Example 8 on TAMH cells, TAMH cells overexpressing Bcl-xL (TAMH-Bcl-xL), TAMH cells transfected with Neo vector (Neo), TAMH cells over expressing a variant of Bcl-xL (A142L) is shown in Table 8
(§5) The effects of the compounds described in Example 10 on TAMH cells, TAMH cells overexpressing Bcl-xL (TAMH-Bcl-xL), TAMH cells transfected with Neo vector (Neo), TAMH cells over expressing a variant of Bcl-xL (A142L) is shown in the following Table 10

[2] = tested on: TAMH cells transfected with Neo vector (Neo); assay: Cytotoxicity / apoptosis induction in TAMH cells transfected with Neo vector; type: cell-based
Experimental: as §1, §2, §3, §4, §5

[3] = tested on: TAMH cells over expressing a variant of Bcl-xL (A142L); assay: Cytotoxicity / apoptosis induction in TAMH cells over expressing Bcl-xL variant A142L; type: cell-based; conditions: Table 4; for EC50: TAMH A142L cells; for WT:142L: ratio of TAMH cells expressing Bcl-xL to those expressing A142L
Experimental: as §1, §2, §3

[4] = Log P
[5] = tested on: OVCAR-3, an ovarian tumor; assay: Apoptosis induction against solid tumors in vitro, OVCAR-3; type: cell-based; conditions: Homo sapiens; Table 21
Experimental: (§6) The ability of compounds from Example 2 to induce apoptosis against solid tumors in vitro was tested. Four solid tumors were tested: OVCAR-3, an ovarian tumor; COLO205, a colonic tumor; HOP-62 and H23, both NSCLC tumors. The experimental compounds were compared to 2MeAA and to ABT-737, a clinical stage compound owned by Abbott Pharma.
(§7) The ability of compounds of Example 8 to induce apoptosis against solid tumors in vitro was tested. Four solid tumors were tested: OVCAR-3, an ovarian tumor; COLO205, a colonic tumor; HOP-62 and H23, both NSCLC tumors. The experimental compounds, […]

[6] = tested on: COLO205, a colonic tumor; assay: Apoptosis induction against solid tumors in vitro, COLO205; type: cell-based; conditions: Homo sapiens, COLO 205; Table 21
Experimental: as §6, §7

[7] = tested on: HOP-62, NSCLC tumor; assay: Apoptosis induction against solid tumors in vitro, HOP-62; type: cell-based; conditions: Homo sapiens; Table 21
Experimental: as §6, §7

[8] = tested on: H23, NSCLC tumor; assay: Apoptosis induction against solid tumors in vitro, H23; type: cell-based; conditions: Homo sapiens, NCI-H23; Table 21
Experimental: as §6, §7

[9] = Table 3, TAMH cells overexpressing Bcl-xL (Tabx2s), read-out: 2S EC50
[10] = Table 4, TAMH-Bcl-xL cells, read-out: Bcl-xL
[11] = Table 3, TAMH Neo cells, read-out: Neo EC50
[12] = Table 4, TAMH Neo cells, read-out: Neo
[13] = Table 15, read-out: IC50 TAMH Bcl-XL
[14] = Table 15, read-out: IC50 TAMH Neo
[15] = Table 10, read-out: IC50 TAMH Bcl-XL
[16] = Table 10, read-out: IC50 TAMH Neo

COc1cc(Br)cc(/C=N/Nc2ccc(C(F)(F)F)cc2)c1O [Compound 0333]
EC50 [1, 9]: 2.2 µM | EC50 [1, 10]: 2.7 µM | Neo:Bcl ([1]; Table 4): 9.2 | EC50 [2, 11]: 26.9 µM | EC50 [2, 12]: > 25 µM | EC50 [3]: 22.2 µM | WT:142L [3]: 8.2 | Log P ([4]; Table 3): 6.510

O=C(/N=C/c1cc(Br)cc(Br)c1O)c1ccccc1 [Compound 0347]
EC50 ([1]; Table 6, TAMH cells overexpressing Bcl-xL (Tabx2s), read-out: 2S EC50): 0.5 µM | EC50 ([2]; Table 6, TAMH Neo cells, read-out: Neo EC50): 5.8 µM | Log P ([4]; Table 6): 4.250

COc1cc(O)c(/C=N/Nc2ccccn2)cc1Br [Compound 0351]
EC50 [1, 9]: 2.6 µM | EC50 [1, 10]: > 25 µM | Neo:Bcl ([1]; Table 4): 1 | EC50 [2, 11]: ≥ 50 µM | EC50 [2, 12]: > 25 µM | EC50 [3]: > 25 µM | WT:142L [3]: 1 | Log P ([4]; Table 3): 3.03

CC(C)(C)c1cc(O)c(/C=N/Nc2ccccn2)cc1Br [Compound 0353]
EC50 [1, 9]: 1.3 µM | EC50 [2, 11]: 10 µM | Log P ([4]; Table 3): 4.810

COc1c(Cl)cc(/C=N/Nc2ccccn2)c(O)c1Br [Compound 0355]
EC50 [1, 9]: 1.6 µM | EC50 [2, 11]: 33 µM | Log P ([4]; Table 3): 3.820

CC(C)(C)c1cc(Br)c(O)c(/C=N/Nc2ccccn2)c1 [Compound 0401]
EC50 [1, 9]: 1.7 µM | EC50 [1, 10]: 4.4 µM | Neo:Bcl ([1]; Table 4): 5.7 | EC50 [2, 11]: 40.8 µM | EC50 [2, 12]: > 25 µM | EC50 [3]: > 25 µM | WT:142L [3]: 2.2 | Log P ([4]; Table 3): 4.810

O=[N+]([O-])c1ccc(S(=O)(=O)Cc2ccccc2)c2nonc12 [Compound 228148]
EC50 ([1]; Table 8, read-out: TAMH Bcl-xL): 6 µM | Neo/Bcl-xL ([1]; Table 8, selectivity ratio): 3.8 | Fold Selectivity (Neo/Bcl-XL) ([1]; Table 15): 3.8 | IC50 [1, 13]: 6 µM | EC50 ([2]; Table 8, read-out: TANH Neo): 22.5 µM | IC50 [2, 14]: 22.5 µM

CC(C)(C)c1cc(C(C)(C)c2ccccc2)cc(Cc2cc(C(C)(C)c3ccccc3)cc(C(C)(C)C)c2O)c1O [Compound 288938]
Fold Select. (Neo/Bcl-XL) ([1]; Table 10): 3.3 | IC50 [1, 15]: 28 µM | IC50 [2, 16]: 93.1 µM

COc1ccc(C(=O)N/N=C2\C(=O)c3c(C)cc(C)cc3CC2(C)C)cc1 [Compound 310343]
IC50 ([1]; Mus musculus, TAMH, Table 16, read-out: TAMH Bcl-XL IC50): 25 µM | Fold Selectivity (Neo/Bcl-XL) ([1]; Table 16): >4 | IC50 ([2]; Mus musculus, TAMH, Table 16, read-out: TAMH Neo IC50): > 100 µM

O=[N+]([O-])c1ccc(S(=O)(=O)C2CCCCC2Cl)c([N+](=O)[O-])c1 (stereo not shown) [Compound 405645]
Fold Selectivity (Neo/Bcl-XL) ([1]; Table 15): 2.1 | IC50 [1, 13]: 2.9 µM | IC50 [2, 14]: 6.1 µM

O=S(=O)(c1cc(Cl)ccc1O)c1cc(Cl)ccc1O [Compound 406932]
Fold Select. (Neo/Bcl-XL) ([1]; Table 10): 4.4 | IC50 [1, 15]: 13.6 µM | Fold Selectivity (Neo/Bcl-XL) ([1]; Table 15): 4.4 | IC50 [1, 13]: 13.6 µM | IC50 [2, 16]: 57.2 µM | IC50 [2, 14]: 57.2 µM

[O-][S+](c1cc(Cl)cc(Cl)c1O)c1cc(Cl)cc(Cl)c1O [Compound 523910]
Fold Select. (Neo/Bcl-XL) ([1]; Table 10): 6.4 | IC50 [1, 15]: 2.2 µM | IC50 [2, 16]: 14.2 µM

Cc1cc(C(C)(C)C)cc(Cc2cc(C(C)(C)C)cc(Cc3cc(C(C)(C)C)cc(C)c3O)c2O)c1O [Compound 634604]
Fold Select. (Neo/Bcl-xL) ([1]; Table 13): 6.4 | IC50 ([1]; Table 13, read-out: IC50 TAMH Bcl-xL): 5 µM | IC50 ([2]; Table 13, read-out: IC50 TAMH Neo): 32.1 µM

Oc1c(Cl)cc(Cl)cc1/C=N/Nc1ccc(C(F)(F)F)cn1 [FH092]
EC50 [5]: 2.7 µM | EC50 [6]: 6.7 µM | EC50 [7]: 8.3 µM | EC50 [8]: 3.7 µM

Oc1c(Br)cc(Cl)cc1/C=N/Nc1ccc(C(F)(F)F)cn1 [FH096]
EC50 [5]: 4.2 µM | EC50 [6]: > 25 µM | EC50 [7]: 19.1 µM | EC50 [8]: 5.6 µM

O=[N+]([O-])c1cccc(/C=N/Nc2ccc3ccccc3n2)c1O [FH297]
EC50 [5]: 1.5 µM | EC50 [6]: 1 µM | EC50 [7]: 2.7 µM | EC50 [8]: 2.8 µM

O=[N+]([O-])c1ccc(O)c(/C=N/Nc2nccc3ccccc23)c1O [FH314]
EC50 [5]: 3.8 µM | EC50 [6]: 9.2 µM | EC50 [7]: 17.5 µM | EC50 [8]: 8.2 µM
